# Experimental data from patent publication US4735954A, “Anti-rheumatic agent” (priority 1985, dated 1988).
# How the values were obtained:
# [1] = system: Adjuvant-induced Edema in Left Legs; test: adjuvant-induced arthritis in rats, edema in left legs; assay type: in vivo, female Wistar rats
# Protocol: (§1) Eight female Wistar rats in each group, weighing 140-200 g were used. The arthritis was induced by intradermal injection of Mycobacterium butyricum suspended in liquid paraffin (0.6 mg/0.1 ml) as the adjuvant to tail. The change in volume of both legs due to the formation of edema was measured 12, 16 and 19 days after the adjuvant challenge. In addition, a severity of the secondary inflammation observed in auricles, paws, legs and tail was graded into the degrees of 0-4.
# [2] = system: Adjuvant-induced Edema in Right Legs; test: adjuvant-induced arthritis in rats, edema in right legs; assay type: in vivo, female Wistar rats
# Protocol: as §1
# [3] = system: Adjuvant-induced Secondary Inflammation; test: adjuvant-induced arthritis in rats, secondary inflammation; assay type: in vivo, female Wistar rats
# Protocol: as §1
# [4] = system: adjuvant-induced experimental arthritis; test: adjuvant-induced experimental arthritis in rats (overall); assay type: in vivo; settings: oral, 20 mg/kg once or 10 mg/kg twice every day
# Protocol: as §1
# acute toxicity in rats = settings: rat, in vivo
# acute toxicity in mice = settings: mouse, in vivo
# rats and mice = test: toxicological studies (acute, subacute, chronic); assay type: in vivo; settings: acute (several routes), subacute (oral, one month), chronic (oral, six months)
# [5] = system: type I (immediate type) allergic reaction; settings: own earlier publications; cited from earlier work
# [6] = system: Arthus reaction (type III allergic reaction); settings: own earlier publication; cited from earlier work
# [7] = disclosed in earlier patents; cited from earlier work
# [8] = disclosed in earlier patents; cited from earlier work; remark: listed apart in the source
# [9] = 10 × 2 mg/kg/day p.o., 12th day
# [10] = 10 × 2 mg/kg/day p.o., 16th day
# [11] = 10 × 2 mg/kg/day p.o., 19th day
smiles,measurement,setting,value
"C[C@]12CCC(=O)C=C1CC[C@@H]1[C@@H]2[C@@H](O)C[C@@]2(C)[C@H]1CC[C@]2(O)C(=O)CO [Hydrocortisone, reference compound]",Inhibition of edema in left legs,"[1]; 5 mg/kg/day p.o., 12th day",57.0%
same,Inhibition of edema in left legs,"[1]; 5 mg/kg/day p.o., 16th day",53.1%
same,Inhibition of edema in left legs,"[1]; 5 mg/kg/day p.o., 19th day",54.7%
same,Inhibition of edema in right legs,"[2]; 5 mg/kg/day p.o., 12th day",90.9%
same,Inhibition of edema in right legs,"[2]; 5 mg/kg/day p.o., 16th day",60.1%
same,Inhibition of edema in right legs,"[2]; 5 mg/kg/day p.o., 19th day",57.8%
same,Inflammation Score,"[3]; 5 mg/kg/day p.o., 16th day, control 11.8",8.1
same,Inflammation Score,"[3]; 5 mg/kg/day p.o., 19th day, control 17.0",9.3
"CC(C)C(=O)c1c(C(C)C)nn2ccccc12 [KC-404, 3-isobutyryl-2-isopropylpyrazalo[1,5-a]pyridine]",Inhibition of edema in left legs,"[1]; 20 mg/kg/day p.o., 12th day",71.7%
same,Inhibition of edema in left legs,"[1]; 20 mg/kg/day p.o., 16th day",79.9%
same,Inhibition of edema in left legs,"[1]; 20 mg/kg/day p.o., 19th day",61.1%
same,Inhibition of edema in left legs,[1]; [9],50.2%
same,Inhibition of edema in left legs,[1]; [10],28.6%
same,Inhibition of edema in left legs,[1]; [11],41.9%
same,Inhibition of edema in right legs,"[2]; 20 mg/kg/day p.o., 12th day",44.4%
same,Inhibition of edema in right legs,"[2]; 20 mg/kg/day p.o., 16th day",80.8%
same,Inhibition of edema in right legs,"[2]; 20 mg/kg/day p.o., 19th day",53.1%
same,Inhibition of edema in right legs,[2]; [9],19.8%
same,Inhibition of edema in right legs,[2]; [10],56.6%
same,Inhibition of edema in right legs,[2]; [11],39.9%
same,Inflammation Score,"[3]; 20 mg/kg/day p.o., 16th day, control 11.8",6.6
same,Inflammation Score,"[3]; 20 mg/kg/day p.o., 19th day, control 17.0",10.3
same,Inflammation Score,"[3]; 10 × 2 mg/kg/day p.o., 16th day, control 11.8",9.0
same,Inflammation Score,"[3]; 10 × 2 mg/kg/day p.o., 19th day, control 17.0",11.4
same,inhibition of the production of adjuvant-induced experimental arthritis,[4],markedly inhibits
same,LD50,"acute toxicity in rats; ip, Female",419 mg/kg
same,LD50,"acute toxicity in rats; ip, Male",500 mg/kg
same,LD50,"acute toxicity in rats; iv, Female",42.5 mg/kg
same,LD50,"acute toxicity in rats; iv, Male",43.2 mg/kg
same,LD50,"acute toxicity in rats; po, Female",1400 mg/kg
same,LD50,"acute toxicity in rats; sc, Female",1370 mg/kg
same,LD50,"acute toxicity in rats; sc, Male",1450 mg/kg
same,LD50,"acute toxicity in mice; ip, Female",500 mg/kg
same,LD50,"acute toxicity in mice; ip, Male",460 mg/kg
same,LD50,"acute toxicity in mice; iv, Female",146 mg/kg
same,LD50,"acute toxicity in mice; iv, Male",160 mg/kg
same,LD50,"acute toxicity in mice; po, Female",1860 mg/kg
same,LD50,"acute toxicity in mice; po, Male",1880 mg/kg
same,LD50,"acute toxicity in mice; sc, Female",3100 mg/kg
same,LD50,"acute toxicity in mice; sc, Male",3000 mg/kg
same,toxicity,rats and mice,low in toxicity
same,effect on type I allergic reaction,[5],inhibitory effect
same,effect on the Arthus reaction (type III allergic reaction),[6],inhibits
same,cerebral vasodilating effect,[7],Cerebral vasodilating
same,bronchodilating effect,[8],bronchodilating
